# Experimental data reported in US20070287699A1, “ANTIVIRAL AGENTS” (ViroBay, Inc., priority 2006, published 2007).
# Test system: HCV replicon RNA replication in human Huh7 hepatoma cells
# Experiment: HCV replicon assay (activity levels from either or both of HCV replicon assay 1, Huh7/Clone A RT-qPCR, and assay 2, Huh7 ET luc-ubi-neo/ET)
# Format: cell-based, Hepatitis C virus (HCV)
# Conditions: Hepatitis C virus, Huh-7, either or both HCV replicon assays: Huh7/Clone A, 48 hours, 72 hours, Luc activity or RT-PCR, read-out: inhibit HCV replication at IC50 levels or estimated IC50 levels
# In short: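 Huh7/Clone A subgenomic replicon cells treated 48 h at 37° C. with 7 serial dilutions in triplicate (0.5% DMSO final). Replicon RNA measured by TaqMan RT-qPCR on the neo gene, normalized to RiboGreen total RNA; untreated cells set as 100% for IC50.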
row,Compound,IC50 [µM]
1,"CC(C)(c1ccc(F)cc1)c1nc(-c2cn(Cc3ccc(F)cc3)c3ccccc3c2=O)no1 [Compound 156, 1-(4-fluorobenzyl)-3-(5-(2-(4-fluorophenyl)propan-2-yl)-1,2,4-oxadiazol-3-yl)quinolin-4(1H)-one]",> 10
2,"CC(C)(c1ccc(F)cc1)c1nnc(-c2cn(Cc3ccc(C(F)(F)F)cc3)c3cc(N4CCOCC4)c(F)cc3c2=O)o1 [Compound 161, 6-fluoro-3-(5-(2-(4-fluorophenyl)propan-2-yl)-1,3,4-oxadiazol-2-yl)-7-morpholino-1-(4-(trifluoromethyl)benzyl)quinolin-4(1H)-one]",< 2
3,"COc1cc2c(=O)c(-c3nnc(Cc4ccc(Cl)cc4)o3)cn(Cc3ccc(Cl)cc3)c2cc1OC [Compound 162, 1-(4-chloro-benzyl)-3-[5-(4-chloro-benzyl)-[1,3,4]oxadiazol-2-yl]-6,7-dimethoxy-1H-quinolin-4-one]",> 10
4,"COc1cc2c(=O)c(-c3nnc(Cc4ccc(Cl)cc4)o3)cn(CC3CCCCC3)c2cc1OC [Compound 163, 3-[5-(4-chloro-benzyl)-[1,3,4]oxadiazol-2-yl]-1-cyclohexylmethyl-6,7-dimethoxy-1H-quinolin-4-one]",> 10
5,"CN1CCN(c2cc3c(cc2F)c(=O)c(-c2nnc(Cc4ccccc4)o2)cn3Cc2ccc(Cl)cc2)CC1 [Compound 164, 3-(5-benzyl-[1,3,4]oxadiazol-2-yl)-1-(4-chloro-benzyl)-6-fluoro-7-(4-methyl-piperazin-1-yl)-1H-quinolin-4-one]",< 10
6,"CN1CCN(c2cc3c(cc2F)c(=O)c(-c2nnc(Cc4ccccc4)o2)cn3Cc2ccc(C(F)(F)F)cc2F)CC1 [Compound 165, 3-(5-benzyl-[1,3,4]oxadiazol-2-yl)-1-(4-(2-fluoro-4-trifluormethyl)-benzyl)-6-fluoro-7-(4-methyl-piperazin-1-yl)-1H-quinolin-4-one]",< 2
7,"CC(C)(c1ccccc1)c1nnc(-c2cn(Cc3ccc(C(F)(F)F)cc3)c3cc(N4CCOCC4)c(F)cc3c2=O)o1 [Compound 167, 6-fluoro-7-morpholino-3-(5-(2-phenylpropan-2-yl)-1,3,4-oxadiazol-2-yl)-1-(4-(trifluoromethyl)benzyl)quinolin-4(1H)-one]",< 2
8,"COc1cc2c(=O)c(-c3nc(Cc4ccccc4)no3)cn(Cc3ccc(Cl)cc3)c2cc1OC [Compound 169, 3-(3-benzyl-[1,2,4]oxadiazol-5-yl)-1-(4-chloro-benzyl)-6,7-dimethoxy-1H-quinolin-4-one]",> 10
9,"COc1cc2c(=O)c(-c3nc(Cc4ccccc4)no3)cn(CC3CCCCC3)c2cc1OC [Compound 170, 3-(3-benzyl-[1,2,4]oxadiazol-5-yl)-1-cyclohexylmethyl-6,7-dimethoxy-1H-quinolin-4-one]",> 10
10,"CC(C)(c1ccccc1)c1noc(-c2cn(Cc3ccc(C(F)(F)F)cc3)c3cc(N4CCOCC4)c(F)cc3c2=O)n1 [Compound 171, 6-fluoro-7-morpholino-3-(3-(2-phenylpropan-2-yl)-1,2,4-oxadiazol-5-yl)-1-(4-(trifluoromethyl)benzyl)quinolin-4(1H)-one]",> 10
11,"O=c1c(-c2nc(Cc3ccc(F)cc3)no2)cn(Cc2ccc(C(F)(F)F)cc2)c2cc(N3CCOCC3)c(F)cc12 [Compound 172, 6-fluoro-3-(3-(4-fluorobenzyl)-1,2,4-oxadiazol-5-yl)-7-morpholino-1-(4-(trifluoromethyl)benzyl)quinolin-4(1H)-one]",> 10
12,"CC(C)(c1ccc(F)cc1)c1noc(-c2cn(Cc3ccc(C(F)(F)F)cc3)c3cc(N4CCOCC4)c(F)cc3c2=O)n1 [Compound 173, 6-fluoro-3-(3-(2-(4-fluorophenyl)propan-2-yl)-1,2,4-oxadiazol-5-yl)-7-morpholino-1-(4-(trifluoromethyl)benzyl)quinolin-4(1H)-one]",> 10
13,"O=c1c(-c2ncc(Cc3ccccc3)o2)cn(Cc2ccc(Cl)cc2)c2ccc(OCCCN3CCOCC3)cc12 [Compound 176, 3-(5-benzyl-oxazol-2-yl)-1-(4-chloro-benzyl)-6-(3-morpholin-4-yl-propoxy)-1H-quinolin-4-one]",< 10
14,"O=c1c(-c2noc(Cc3ccc(Cl)cc3)n2)cn(Cc2ccc(C(F)(F)F)cc2F)c2c1CNCC2 [Compound 178, 3-[5-(4-chloro-benzyl)-[1,2,4]oxadiazol-3-yl]-1-(2-fluoro-4-trifluoromethyl-benzyl)-5,6,7,8-tetrahydro-1H-[1,6]naphthyridin-4-one]",< 10
